Values of other authors as cited in patent publication US6737381B1, “Phytosanitary composition comprising at least a water soluble agent and a modified oil” (Institut National de la Recherche Agronomique, priority 1999, dated 2004).

Settings: hydrophilic herbicide

O=C(O)CNCP(=O)(O)O [glyphosate, N-(phosphonomethyl)glycine]
log P: < −3.4
